Measurements from patent US20170114025A1, “METHODS FOR INHIBITING NECROPTOSIS” (Catalyst Therapeutics Pty Ltd, priority 2014, published 2017).
Read-outs that look alike come from different tables or passages of the source.

Experiments:
wild type U937 cells = assay: Cell death assay, TSQ-induced necroptosis in U937 cells (PI, flow cytometry); type: cell-based, human; conditions: wild type U937 cells
From the text: (§1) Mouse dermal fibroblasts (MDFs) were isolated from three MlkI^−/− mice and three congenic wild type mice and then immortalized by SV40 large T antigen to generate three biologically independent cell lines, as described in Murphy J M, et al. (2013), Immunity 39(3):443-453. Immortalized MDFs were similarly prepared from three Ripk3^−/− mice and congenic wild type mice. MDFs and HEK293T were maintained in Dulbecco's modified Eagle's medium (DMEM) supplemented with 8-10% v/v fetal calf serum (FCS), and 5 μg/mL puromycin for lines stably transduced with inducible expression constructs for MLKL. U937 cells were cultured in RPMI1640 supplemented with 8% v/v FCS. Cell death assays were carried out in 24 well plates, seeding 1×10^5 cells per well. Cells attached over 4 h in the presence of 10 ng/mL doxycycline or 20 ng/mL were then treated with assorted combinations of Necrostatin (50 μM) and Q-VD-OPh (5 μM) 30 min prior to addition of TNF (100 ng/mL) and Smac mimetic (500 nM). After 24 h for MDF cells or 48 h for U937 cells, cells were harvested and PI positive cells (1 μg/mL) quantified using a BD FACSCalibur flow cytometer.

[1] = test system: wild type MDFs (mouse dermal fibroblasts); assay: Cell death assay, TSQ-induced necroptosis in MDFs (PI, flow cytometry); type: cell-based; conditions: wild type MDFs; at same or less than 1 μM
From the text: as §1

U937 cells = assay: Counter screen: cell viability without TSQ cocktail (off target effect); type: cell-based
Experimental: In parallel, all compounds are tested for their ability to affect cell viability. The same U937 cells are treated with compound in DMSO without the TSQ cocktail. This counter screen enables evaluation of off-target effects. In this case gain, cell viability is measured by flow cytometry after PI staining.

[2] = test system: U937 human histiocytic leukemia cell line; assay: Screening for inhibition of TSQ induced necroptosis, 96 well plate format; type: cell-based
Experimental: Screening Compounds for Inhibition of TSQ Induced Necroptosis, 96 Well Plate Format.
U937 human histiocytic leukemia cell line.
35,000 per well in 120 μL of media, counted and plated immediately prior to addition of inhibitor and death stimuli. Final well volume of 150 μL after addition of compounds and death stimuli
HTRPMI (WEHI Media kitchen, contains L-Glutamine and penicillin, streptomycin)—supplemented with 7.4% v/v FCS (Gibco, Precision Plus. Lot #1221437)
48 hours following addition of compounds and death stimuli
DMSO Final Concentration (% v/v): 0.2%
Compounds that are in the Death Stimulation Cocktail and their Final Concentrations: • hTNF-Fc (100 ng/ml)—produced by Silke lab, WEHI • Compound A (500 nM)—Smac mimetic, Tetralogic • Q-VD-OPh (10 μM)—MP Biomedicals
Analysis: • Cells treated with PI staining (1 μg/ml) and analysed by flow cytometry
TNF; S: Smac mimetic; Q: Q-VD-OPh): TSQ treatment ensures that cells specifically undergo necroptotic cell death. TNF activates the TNF receptor, Smac mimetic direct the signal away from proinflammatory signaling and toward the RIP1/RIP3-mediated cell death pathways, and Q-VD-OPh ensures that the apoptotic response is blocked leaving only the programmed necrosis response. The compounds' activity (solution in DMSO) tested in this TSQ-induced assay is evaluated by measuring their ability to block cell death as measured by flow cytometry after PI staining.

[3] = U937 without TSQ cocktail, compound at 500 nM
[4] = U937 without TSQ cocktail, compound at 1 uM
[5] = U937 without TSQ cocktail, compound at 5 uM
[6] = U937 without TSQ cocktail, compound at 10 uM
[7] = U-937, U937, TSQ, 48 hours, average IC50, unit not given in Table 2 (titrations in nM), read-out: Cell based assay Average
[8] = U-937, U937, TSQ, 48 hours, unit not given in Table 2 (titrations given in nM), read-out: Cell based assay IC50

Row | Compound | inhibition of TSQ-induced necroptosis (wild type U937 cells) | inhibition of TSQ-induced necroptosis [1] | Off target effect (% cell death) at 500 nM (U937 cells; [3]) | Off target effect (% cell death) at 1 uM (U937 cells; [4]) | Off target effect (% cell death) at 5 uM (U937 cells; [5]) | Off target effect (% cell death) at 10 uM (U937 cells; [6]) | IC50 [2, 7] | IC50 [2, 8] | IC50 ([2]; U-937, 48 h, read-out: Cell based assay Average) | IC50 ([2]; U-937, 48 h, read-out: Cell based assay IC50) | Off target effect (% cell death) at 500 nM (U937 cells; human, 500 nM) | Off target effect (% cell death) at 1 uM (U937 cells; human, 1 uM) | Off target effect (% cell death) at 5 uM (U937 cells; human, 5 uM) | Off target effect (% cell death) at 10 uM (U937 cells; human, 10 uM)
1 | CNC(=O)c1cc(Oc2ccc(NC(=O)Nc3ccc(Cl)c(C(F)(F)F)c3)cc2)ccn1 [Sorafenib, reference compound] | did not inhibit | did not inhibit | – | – | – | – | – | – | – | – | – | – | – | –
2 | CN(c1ccc(NC(=O)Nc2ccc(OC(F)(F)F)cc2)cc1)c1ccnc(Nc2ccc(F)c(S(N)(=O)=O)c2)n1 [Compound 18, 2-Fluoro-5-((4-(methyl(4-(3-(4-(trifluoromethoxy)phenyl)ureido)phenyl)amino)pyrimidin-2-yl)amino)benzenesulfonamide] | – | – | 27% | 29% | 94% | 93% | 59.4 nM | 91.7 nM | – | – | – | – | – | –
3 | CN(c1ccc(NC(=O)Nc2ccc(OC(F)(F)F)cc2)cc1)c1ccnc(Nc2cccc(S(N)(=O)=O)c2)c1 [Compound 15, 3-((4-(methyl(4-(3-(4-(trifluoromethoxy)phenyl)ureido)phenyl)amino)pyridin-2-yl)amino) benzenesulfonamide] | – | – | <20% | <20% | <20% | 43% | 304 nM | 328 nM | – | – | – | – | – | –
4 | CN(c1ccc(NC(=O)Cc2ccc(OC(F)(F)F)cc2)cc1)c1ccnc(Nc2cccc(S(N)(=O)=O)c2)n1 [Compound 16, N-(4-(methyl(2-((3-sulfamoylphenyl)amino)pyrimidin-4-yl)amino)phenyl)-2-(4-(trifluoro-methoxy)phenyl)acetamide] | – | – | <20% | <20% | <20% | 30% | 87.3 nM | 97.5 nM | – | – | – | – | – | –
5 | Cc1ccc(Nc2nccc(N(C)c3ccc(NC(=O)Nc4ccc(OC(F)(F)F)cc4)cc3)n2)cc1C(=O)N(C)C [Compound 19, N,N,2-trimethyl-5-((4-(methyl(4-(3-(4-(trifluoromethoxy)phenyl)ureido)phenyl)amino)pyrimidin-2-yl)amino)benzamide] | – | – | 28% | 30% | 26% | 70% | 85.5 nM | 114 nM | – | – | – | – | – | –
6 | CN(c1ccc(CC(=O)Nc2ccc(OC(F)(F)F)cc2)cc1)c1ccnc(Nc2cccc(S(N)(=O)=O)c2)n1 [Compound 17, 2-(4-(methyl(2-((3-sulfamoylphenyl)amino)pyrimidin-4-yl)amino)phenyl)-N-(4-(trifluoromethoxy)phenyl)acetamide] | – | – | 22% | 21% | <20% | 39% | 1050 nM | 979 nM | – | – | – | – | – | –
7 | CN(c1ccc(NC(=O)Nc2ccc(OC(F)(F)F)cc2)cc1)c1ccnc(Nc2cccc(S(C)(=O)=O)c2)n1 [Compound 25, 1-(4-(Methyl(2-((3-(methylsulfonyl)phenyl)amino)pyrimidin-4-yl)amino)phenyl)-3-(4-(trifluoromethoxy)phenyl)urea] | – | – | <20% | <20% | 43% | 86% | 32.9 nM | 21.7 nM | – | – | – | – | – | –
8 | CN(c1ccc(NC(=O)Nc2ccc(OC(F)(F)F)cc2)cc1)c1ccnc(Nc2cccc(CS(C)(=O)=O)c2)n1 [Compound 27, 1-(4-(Methyl(2-((3-((methylsulfonyl)methyl)phenyl)amino)pyrimidin-4-yl)amino)phenyl)-3-(4-(trifluoromethoxy)phenyl)urea] | – | – | 24% | 20% | 33% | 84% | 114 nM | 191 nM | – | – | – | – | – | –
9 | CNS(=O)(=O)c1cccc(Nc2nccc(N(C)c3ccc(NC(=O)Nc4ccc(OC(F)(F)F)cc4)cc3)n2)c1 [Compound 9, N-methyl-3-((4-(methyl(4-(3-(4-(trifluoromethoxy)phenyl)ureido)-phenyl)amino)pyrimidin-2-yl)amino) benzenesulfonamide] | – | – | <20% | <20% | 43% | 88% | 42 nM | 73.1 nM | – | – | – | – | – | –
10 | Cc1ccc(Nc2nccc(N(C)c3ccc(NC(=O)Nc4ccc(OC(F)(F)F)cc4)cc3)n2)cc1S(N)(=O)=O [Compound 21, 2-Methyl-5-((4-(methyl(4-(3-(4-(trifluoromethoxy)phenyl)ureido)phenyl)amino)pyrimidin-2-yl)amino) benzenesulfonamide] | – | – | <20% | <20% | 51% | 79% | 58.4 nM | 72.7 nM | – | – | – | – | – | –
11 | CN(C(=O)Nc1ccc(OC(F)(F)F)cc1)c1ccc(N(C)c2ccnc(Nc3cccc(S(N)(=O)=O)c3)n2)cc1 [Compound 12, 3-((4-(methyl(4-(1-methyl-3-(4-(trifluoromethoxy)phenyl)ureido)phenyl)amino)pyrimidin-2-yl)amino) benzene sulfonamide] | – | – | 36% | 41% | 36% | 56% | – | 327 nM | – | – | – | – | – | –
12 | CN(c1cccc(NC(=O)Nc2ccc(OC(F)(F)F)cc2)c1)c1ccnc(Nc2cccc(S(N)(=O)=O)c2)n1 [Compound 14, 3-((4-(methyl(3-(3-(4-(trifluoromethoxy)phenyl)ureido)phenyl)amino)pyrimidin-2-yl)amino) benzenesulfonamide] | – | – | <20% | <20% | <20% | 70% | – | – | 342 nM | 443 nM | – | – | – | –
13 | NS(=O)(=O)c1cccc(Nc2nccc(Nc3ccc(NC(=O)Nc4ccc(OC(F)(F)F)cc4)cc3)n2)c1 [Compound 11, 3-((4-((4-(3-(4-(trifluoromethoxy)phenyl)ureido)phenyl)amino)pyrimidin-2-yl)amino)benzenesulfonamide] | – | – | <20% | <20% | <20% | 20% | 359 nM | 359 nM | – | – | – | – | – | –
14 | Cc1cc(OC(F)(F)F)ccc1NC(=O)Nc1ccc(N(C)c2ccnc(Nc3cccc(S(N)(=O)=O)c3)n2)cc1 [Compound 20, 3-((4-(Methyl(4-(3-(2-methyl-4-(trifluoromethoxy)phenyl)ureido)phenyl)-amino)pyrimidin-2-yl)amino) benzenesulfonamide] | – | – | – | – | – | – | 109 nM | 143 nM | – | – | 24% | 29% | 33% | 80%
15 | Cc1ccc(F)c(NC(=O)Nc2ccc(N(C)c3ccnc(Nc4cccc(S(N)(=O)=O)c4)n3)cc2)c1 [Compound 6] | – | – | <20% | 40% | 86% | 89% | 19.9 nM | 19 nM | – | – | – | – | – | –
